Source: US20260176267A1, “PREPARATION OF IMIDAZOPYRIDINE AND IMIDAZOPYRIDAZINE DERIVATIVES AS NOVEL DIACYLGLYCERIDE O-ACYLTRANSFERASE 2 INHIBITORS” (Merck Sharp & Dohme LLC, priority 2022, published 2026)

Biological target: T1, human DGAT2 (hDGAT2) (Homo sapiens, UniProt Q96PD7)
T1 construct: made in house; host or cells: Sf-9 insect cells (baculovirus), membrane fraction
T1 sequence (Q96PD7 1-388): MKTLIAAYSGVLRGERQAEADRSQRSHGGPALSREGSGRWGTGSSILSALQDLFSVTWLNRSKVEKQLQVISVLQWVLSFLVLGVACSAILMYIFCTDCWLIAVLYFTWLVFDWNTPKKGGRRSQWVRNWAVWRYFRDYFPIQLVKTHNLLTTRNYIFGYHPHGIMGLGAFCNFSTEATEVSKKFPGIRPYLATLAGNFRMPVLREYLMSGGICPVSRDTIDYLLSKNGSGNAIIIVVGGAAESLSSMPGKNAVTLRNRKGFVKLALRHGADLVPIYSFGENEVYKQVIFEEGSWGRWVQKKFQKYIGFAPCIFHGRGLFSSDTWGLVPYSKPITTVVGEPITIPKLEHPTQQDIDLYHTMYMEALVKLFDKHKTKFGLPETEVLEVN
Assay: DGAT2 Enzymatic Activity Assay
Format: biochemical
Conditions: membrane prep of Sf-9 cells expressing hDGAT2; 13C18-triolein product by LC/MS/MS; 25 μM diolein, 5 μM 13C oleoyl-CoA, rt
Method in brief: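 Membranes from Sf-9 cells expressing untagged human DGAT2 (baculovirus, 48 h) used as enzyme at rt. The product ^13C18-triolein is quantified by LC/MS/MS against a ^13C21-triolein internal standard. Percent inhibition is taken from high and low controls, and IC50 is derived.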

SMILES	IC50 [nM]
Cc1c(C(=O)NC2(C)CCS(=O)(=O)CC2)nc2ccc(Oc3ncc(C4CC4)cc3OCC(F)(F)F)cn12 [Example 145, 6-[[5-cyclopropyl-3-(2,2,2-trifluoroethoxy)-2-pyridyl]oxy]-3-methyl-N-(4-methyl-1,1-dioxo-thian-4-yl)imidazo[1,2-a]pyridine-2-carboxamide]	133
Cc1c(C(=O)NC2(C)CCS(=O)(=O)CC2)nc2ccc(Oc3ncc(C(C)(C)O)cc3OCC(F)(F)F)cn12 [Example 146, 6-[[5-(1-hydroxy-1-methyl-ethyl)-3-(2,2,2-trifluoroethoxy)-2-pyridyl]oxy]-3-methyl-N-(4-methyl-1,1-dioxo-thian-4-yl)imidazo[1,2-a]pyridine-2-carboxamide]	102
Cc1c(C(=O)NC2(C)CCS(=O)(=O)CC2)nc2ccc(Oc3ncc(C(C)(C)F)cc3OCC(F)(F)F)cn12 [Example 147, 6-[[5-(1-fluoro-1-methyl-ethyl)-3-(2,2,2-trifluoroethoxy)-2-pyridyl]oxy]-3-methyl-N-(4-methyl-1,1-dioxo-thian-4-yl)imidazo[1,2-a]pyridine-2-carboxamide]	41
Cc1c(C(=O)NC2(C)CCS(=O)(=O)CC2)nc2ccc(Oc3ncc(O)cc3OCC(F)(F)F)cn12 [Example 148, 6-[[5-hydroxy-3-(2,2,2-trifluoroethoxy)-2-pyridyl]oxy]-3-methyl-N-(4-methyl-1,1-dioxo-thian-4-yl)imidazo[1,2-a]pyridine-2-carboxamide]	80
Cc1c(C(=O)NC2(C)CCS(=O)(=O)CC2)nc2ccc(Oc3ncc(C#N)cc3OCC(F)(F)F)cn12 [Example 149, 6-[[5-cyano-3-(2,2,2-trifluoroethoxy)-2-pyridyl]oxy]-3-methyl-N-(4-methyl-1,1-dioxo-thian-4-yl)imidazo[1,2-a]pyridine-2-carboxamide]	33
Cc1c(C(=O)NC2(C)CCS(=O)(=O)CC2)nc2ccc(Oc3ncc(S(C)(=O)=O)cc3OCC(F)(F)F)cn12 [Example 150, 3-methyl-N-(4-methyl-1,1-dioxo-thian-4-yl)-6-[[5-methylsulfonyl-3-(2,2,2-trifluoroethoxy)-2-pyridyl]oxy]imidazo[1,2-a]pyridine-2-carboxamide]	58
Cc1c(C(=O)NC2(C)CCS(=O)(=O)CC2)nc2ccc(Oc3ncc(C(=O)O)cc3OCC(F)(F)F)cn12 [Example 151, 6-[3-methyl-2-[(4-methyl-1,1-dioxo-thian-4-yl)carbamoyl]imidazo[1,2-a]pyridine-6-yl]oxy-5-(2,2,2-trifluoroethoxy)pyridine-3-carboxylic acid]	> 9990
Cc1c(C(=O)NC2(C)CS(=O)(=O)C2)nc2ccc(Oc3ncc(N(C)C)cc3OCC(F)(F)F)cn12 [Example 152, 6-[5-(dimethylamino)-3-(2,2,2-trifluoroethoxy)pyridine-2-yl]oxy-3-methyl-N-(3-methyl-1,1-dioxo-thietan-3-yl)imidazo[1,2-a]pyridin-1-ium-2-carboxamide]	63
CC1(NC(=O)c2cn3nc(Oc4ncc(F)cc4OC4CCC4)ccc3n2)CCS(=O)(=O)CC1 [Example 158, 6-[[3-(Cyclobutoxy)-5-fluoro-2-pyridyl]oxy]-N-(4-methyl-1,1-dioxo-thian-4-yl)imidazo[1,2-b]pyridazine-2-carboxamide]	590
O=C(N[C@H]1CCCC(F)(F)[C@@H]1O)c1cn2nc(Oc3ncc(Cl)cc3OCC(F)(F)F)ccc2n1 [Example 161, 6-((5-chloro-3-(2,2,2-trifluoroethoxy)pyridin-2-yl)oxy)-N-((1S,2R)-3,3-difluoro-2-hydroxycyclohexyl)imidazo[1,2-b]pyridazine-2-carboxamide]	37
Cc1c(C(=O)NC2(C)CS(=O)(=O)C2)nc2ccc(Oc3ncc(Cl)cc3OCC(F)F)nn12 [Example 167, 6-((5-chloro-3-(2,2-difluoroethoxy)pyridin-2-yl)oxy)-3-methyl-N-(3-methyl-1,1-dioxidothietan-3-yl)imidazo[1,2-b]pyridazine-2-carboxamide]	11
Cc1cc2nc(C(=O)NC3(C)CCS(=O)(=O)CC3)c(C)n2nc1Oc1ncc(F)cc1OCC(F)(F)F [Example 170, 6-[[5-fluoro-3-(2,2,2-trifluoroethoxy)-2-pyridyl]oxy]-3,7-dimethyl-N-(4-methyl-1,1-dioxo-thian-4-yl)imidazo[1,2-b]pyridazine-2-carboxamide]	15

The next lines start with the values.

IC50 [nM]	SMILES
3.2	CC1(NC(=O)c2cn3nc(Oc4ncc(Cl)cc4OCC(F)F)ccc3n2)CCS(=O)(=O)CC1 [Example 153, 6-((5-Chloro-3-(2,2-difluoroethoxy)pyridin-2-yl)oxy)-N-(4-methyl-1,1-dioxidotetrahydro-2H-thiopyran-4-yl)imidazo[1,2-b]pyridazine-2-carboxamide]
154	CC(F)(F)COc1cc(Cl)cnc1Oc1ccc2nc(C(=O)NC3(C)CCS(=O)(=O)CC3)cn2n1 [Example 154, 6-[[5-Chloro-3-(2,2-difluoropropoxy)-2-pyridyl]oxy]-N-(4-methyl-1,1-dioxo-thian-4-yl)imidazo[1,2-b]pyridazine-2-carboxamide]
186	CC1(NC(=O)c2cn3nc(Oc4ncc(F)cc4OCC4(F)CC4)ccc3n2)CCS(=O)(=O)CC1 [Example 155, 6-[[5-Fluoro-3-[(1-fluorocyclopropyl)methoxy]-2-pyridyl]oxy]-N-(4-methyl-1,1-dioxo-thian-4-yl)imidazo[1,2-b]pyridazine-2-carboxamide]
988	CC(F)(F)COc1cc(F)cnc1Oc1ccc2nc(C(=O)NC3(C)CCS(=O)(=O)CC3)cn2n1 [Example 156, 6-[[3-(2,2-Difluoropropoxy)-5-fluoro-2-pyridyl]oxy]-N-(4-methyl-1,1-dioxo-thian-4-yl)imidazo[1,2-b]pyridazine-2-carboxamide]
18	CC1(NC(=O)c2cn3nc(Oc4ncc(F)cc4OCC4CC4)ccc3n2)CCS(=O)(=O)CC1 [Example 157, 6-[[3-(Cyclopropylmethoxy)-5-fluoro-2-pyridyl]oxy]-N-(4-methyl-1,1-dioxo-thian-4-yl)imidazo[1,2-b]pyridazine-2-carboxamide]
211	CC1(NC(=O)c2cn3nc(Oc4ncc(Cl)cc4OCC(F)(F)F)ccc3n2)CCS(=O)(=O)CC1 [Example 159, 6-[[5-Chloro-3-(2,2,2-trifluoroethoxy)-2-pyridyl]oxy]-N-(4-methyl-1,1-dioxo-thian-4-yl)imidazo[1,2-b]pyridazine-2-carboxamide]
3.9	CC1(NC(=O)c2cn3nc(Oc4ncc(F)cc4OCC(F)F)ccc3n2)CCS(=O)(=O)CC1 [Example 160, 6-[[3-(2,2-Difluoroethoxy)-5-fluoro-2-pyridyl]oxy]-N-(4-methyl-1,1-dioxo-thian-4-yl)imidazo[1,2-b]pyridazine-2-carboxamide]
474	CC1(NC(=O)c2cn3nc(Oc4ncc(Cl)cc4OCC(F)(F)F)ccc3n2)CS(=O)(=O)C1 [Example 162, 6-[[5-chloro-3-(2,2,2-trifluoroethoxy)-2-pyridyl]oxy]-N-(3-methyl-1,1-dioxo-thietan-3-yl)imidazo[1,2-b]pyridazine-2-carboxamide]
207	CS(=O)(=O)CC1(NC(=O)c2cn3nc(Oc4ncc(Cl)cc4OCC(F)F)ccc3n2)CCC1 [Example 163, 6-[[5-Chloro-3-(2,2-difluoroethoxy)-2-pyridyl]oxy]-N-[1-(methylsulfonylmethyl)cyclobutyl] imidazo[1,2-b]pyridazine-2-carboxamide]
16	CC1(NC(=O)c2cn3nc(Oc4ncc(F)cc4OCC(F)(F)F)ccc3n2)CCS(=O)(=O)CC1 [Example 164, 6-[[5-Fluoro-3-(2,2,2-trifluoroethoxy)-2-pyridyl]oxy]-N-(4-methyl-1,1-dioxo-thian-4-yl)imidazo[1,2-b]pyridazine-2-carboxamide]
901	CC1(NC(=O)c2cn3nc(Oc4nccnc4OCC(F)(F)F)ccc3n2)CCS(=O)(=O)CC1 [Example 165, N-(4-Methyl-1,1-dioxo-thian-4-yl)-6-[3-(2,2,2-trifluoroethoxy)pyrazin-2-yl]oxy-imidazo[1,2-b]pyridazine-2-carboxamide]
6.8	Cc1c(C(=O)NC2(C)CCS(=O)(=O)CC2)nc2ccc(Oc3ncc(Cl)cc3OCC(F)F)nn12 [Example 166, 6-((5-Chloro-3-(2,2-difluoroethoxy)pyridin-2-yl)oxy)-3-methyl-N-(4-methyl-1,1-dioxidotetrahydro-2H-thiopyran-4-yl)imidazo[1,2-b]pyridazine-2-carboxamide]
1	Cc1cc2nc(C(=O)NC3(C)CCS(=O)(=O)CC3)cn2nc1Oc1ncc(Cl)cc1OCC(F)F [Example 168, 6-((5-Chloro-3-(2,2-difluoroethoxy)pyridin-2-yl)oxy)-7-methyl-N-(4-methyl-1,1-dioxidotetrahydro-2H-thiopyran-4-yl)imidazo[1,2-b]pyridazine-2-carboxamide]
121	Cc1cc2nc(C(=O)NC3(C)CS(=O)(=O)C3)cn2nc1Oc1ncc(Cl)cc1OCC(F)F [Example 169, 6-[[5-chloro-3-(2,2-difluoroethoxy)-2-pyridyl]oxy]-7-methyl-N-(3-methyl-1,1-dioxo-thietan-3-yl)imidazo[1,2-b]pyridazine-2-carboxamide]
1.3	Cc1cc2nc(C(=O)NC3(C)CCS(=O)(=O)CC3)c(C)n2nc1Oc1ncc(F)cc1OCC(F)F [Example 171, 6-[[3-(2,2-difluoroethoxy)-5-fluoro-2-pyridyl]oxy]-3,7-dimethyl-N-(4-methyl-1,1-dioxo-thian-4-yl)imidazo[1,2-b]pyridazine-2-carboxamide]
